Experimental data: ChEMBL document CHEMBL6177973, “A Novel Compound 3a-M1, from Metabolites of Sinomenine Derivative 3a, Exerts Potent Anti-Aplastic Anemia Activity via IP3R/ORAI-Mediated CTL Ferroptosis” (J Med Chem, 2025)
Calls of active or inactive are those of the source. The calls are words filed in the database; no cut-off is given here.

How the values were obtained:
[1] = Drug metabolism in rat plasma assessed as hydrolyzation/demethylation/hydroxylation-mediated metabolite formation at 50 mg/kg, po measured for 24 hrs by HRMS analysis; type: ADME, organism-based; conditions: in vivo
[2] = Drug metabolism in mouse bone marrow assessed as (4bR,9S)-1-(hydroxymethyl)-3,7-dimethoxy-11-methyl-6-oxo-6,8a,9,10-tetrahydro-5H-9,4b-(epiminoethano)phenanthren-4-yl cinnamate metabolite formation at 50 mg/kg, po measured for 0.083 to 8 hrs by HPLC analysis; type: ADME, organism-based; conditions: in vivo, time 0.083-8 hrs
[3] = Drug metabolism in mouse spleen assessed as cinnamic acid metabolite formation at 50 mg/kg, po measured for 0.083 to 8 hrs by HPLC analysis; type: ADME, organism-based; conditions: in vivo, time 0.083-8 hrs
[4] = Stability in mouse thymus assessed as compound remaining at 50 mg/kg, po measured for 0.083 to 8 hrs by HPLC analysis; type: ADME, organism-based; conditions: in vivo, time 0.083-8 hrs
[5] = Drug metabolism in mouse thymus assessed as (4bR,9S)-1-(hydroxymethyl)-3,7-dimethoxy-11-methyl-6-oxo-6,8a,9,10-tetrahydro-5H-9,4b-(epiminoethano)phenanthren-4-yl cinnamate metabolite formation at 50 mg/kg, po measured for 0.083 to 8 hrs by HPLC analysis; type: ADME, organism-based; conditions: in vivo, time 0.083-8 hrs
Mus musculus [6] = assay: Anti-aplastic anemia activity in C57BL/6J mouse model of immune-mediated bone marrow failure assessed as CD8+ T cells at 15 mg/kg, IG qd treated for 12 days by flow cytometry (reference value: 72.15 %); type: functional; conditions: time 12 day
Mus musculus [7] = assay: Anti-aplastic anemia activity in BALB/c mouse model of immune-mediated bone marrow failure assessed as increase in platelet cells at 10 mg/kg, po treated for 14 days; type: functional, organism-based; conditions: time 14.0 day
Mus musculus [8] = assay: Anti-aplastic anemia activity in C57BL/6J mouse model of immune-mediated bone marrow failure assessed as CD4+ T cells at 5 mg/kg, IG qd treated for 12 days by flow cytometry (reference value: 12.93 %); type: functional; conditions: time 12 day
Mus musculus [9] = assay: Anti-aplastic anemia activity in C57BL/6J mouse model of immune-mediated bone marrow failure assessed as CD8+ T cells at 10 mg/kg, IG qd treated for 12 days by flow cytometry (reference value: 72.15 %); type: functional; conditions: time 12 day
RAW264.7 = assay: Cytotoxicity against mouse RAW264.7 cells assessed as inhibition of cell viability incubated for 72 hrs by CCK8 assay; type: functional, cell-based; conditions: RAW264.7, 72 h
[10] = Acute toxicity in 12 hr-fasted KM mouse assessed as maximum tolerable dose administered orally as single dose measured for 14 days; conditions: in vivo, route po, time 14 day
Mus musculus [11] = assay: Anti-aplastic anemia activity in C57BL/6J mouse model of immune-mediated bone marrow failure assessed as increase in animal survival at 5 to 15 mg/kg, IG qd treated for 21 days; type: functional, organism-based; conditions: dose 5-15 mg/kg, time 21.0 day
IEC-6 = assay: Induction of ferroptosis in rat IEC-6 cells assessed as increase in intracellular Ca2+ concentration at 10 uM by Fluo-4 AM dye based analysis; type: functional, cell-based
[12] = Acute toxicity in 12 hr-fasted KM mouse assessed as abnormalities in animal at 10 g/kg, po administered as single dose measured for 14 days; type: organism-based; conditions: in vivo, 10000 mg/kg, 336 h, time 14 day
CTLL-2 [13] = assay: Induction of ferroptosis in IL-2-stimulated mouse CTLL-2 cells assessed as increase in ROS level at 30 uM incubated for 6 hrs followed by Fer-1 addition measured after 10 hrs by DCFH-DA staining based flow cytometry; type: functional, cell-based; conditions: time 16.0 hrs
CTLL-2 [14] = assay: Induction of ferroptosis in mouse CTLL-2 cells assessed as increase in intracellular Ca2+ concentration at 10 uM incubated for 45 mins in presence of 2-APB by Fluo-4 AM dye based analysis; type: functional, cell-based
Mus musculus [15] = assay: Anti-aplastic anemia activity in C57BL/6J mouse model of immune-mediated bone marrow failure assessed as CD8+ T cells at 5 mg/kg, IG qd treated for 12 days by flow cytometry (reference value: 72.15 %); type: functional; conditions: time 12 day

| SMILES | Drug metabolism [1] | Drug metabolism [2] | Drug metabolism [3] | Stability [4] | Drug metabolism [5] | Activity (Mus musculus [6]) [%] | Activity (Mus musculus [7]) | Activity (Mus musculus [8]) [%] | Activity (Mus musculus [9]) [%] | IC50 (RAW264.7) [µM] | MTD at 336 h [10] [mg/kg] | Activity (Mus musculus [11]) | Activity (IEC-6) | Activity [12] | Activity (CTLL-2 [13]) | Activity (CTLL-2 [14]) | Activity (Mus musculus [15]) [%] |
| --- | --- | --- | --- | --- | --- | --- | --- | --- | --- | --- | --- | --- | --- | --- | --- | --- | --- |
| COC1=C[C@@H]2[C@@H]3Cc4c(COC(=O)/C=C/c5ccccc5)cc(OC)c(OC(=O)/C=C/c5ccccc5)c4[C@]2(CCN3C)CC1=O | metabolite_detected | metabolite_detected | metabolite_detected | Unstable | metabolite_detected |  |  |  |  |  |  |  |  |  |  |  |  |
| COC1=C[C@@H]2[C@@H]3Cc4c(CO)cc(OC)c(OC(=O)/C=C/c5ccccc5)c4[C@]2(CCN3C)CC1=O |  |  |  |  |  | 35.23 | Active | 11.38 | 38.55 | 492 | > 10000 | Active; Improvement Observed During Early Stages Of Bone Marrow Failure | Not active; Elevation Was Smaller Than In Mouse Ctll-2 Cells | Non-toxic | inactive | inactive | 60.82 |
